Source: patent US20230085307A1, “PYRIDAZINONE COMPOUND AND HERBICIDE” (NISSAN CHEMICAL CORPORATION, priority 2019, published 2023)

What was measured:
[1] = system: Japanese bulrush; assay: Test Example 1: herbicidal activity, application before weed generation under submerged conditions (Table 16, symbol B); assay type: in vivo, Japanese bulrush (Schoenoplectus juncoides); details: 320 g/ha applied herbicide
Method in brief: (§1)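 Emulsion formulation, water-diluted to set dose, was put onto the flooded surface (4 cm depth, alluvial soil) the same day weeds were sown and 2.5-leaf rice transplanted. After 3 weeks at 25-30 °C under glass, each species was rated 0 (≤5% kill) to 5 (≥90% kill).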

[2] = system: oval-leafed pondweed; assay: Test Example 1: herbicidal activity, application before weed generation under submerged conditions (Table 16, symbol C); assay type: in vivo, oval-leafed pondweed (Monochoria vaginalis); details: 320 g/ha applied herbicide
Method in brief: as §1

[3] = system: oval-leafed pondweed; assay: Test Example 2: herbicidal activity, application during weed generation under submerged conditions (Table 17, symbol C); assay type: in vivo, oval-leafed pondweed (Monochoria vaginalis); details: AAH 320 g/ha; application during weed generation, submerged conditions
Method in brief: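 Mixed weed seedlings in alluvial soil under a 4 cm water layer, greenhouse-grown at 25–30° C. Compound given as a diluted emulsion into the floodwater at the 1–2 leaf stage; response graded after three weeks.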

[4] = system: rice flat sedge; assay: Test Example 3: herbicidal effect by foliage application, Wagner pot (Table 18, symbol E); assay type: in vivo, rice flat sedge (Cyperus iria); details: 320 g/ha
Method in brief: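 Plants were sown in alluvial soil held under 0.1–0.5 cm standing water and grown 14 days in a greenhouse at 25–30 °C. An emulsifiable formulation, water-diluted to the set dose, was then sprayed onto the foliage, and effects were scored three weeks later using previously defined criteria.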

[5] = system: green foxtail; assay: Test Example 4: herbicidal effect by soil treatment (Table 19, symbol G); assay type: in vivo, green foxtail (Setaria viridis)
Method in brief: (§2)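 In this soil treatment, the formulated compound reached the seeds only through the soil: seeds were buried about 1.5 cm deep in sterilized diluvial soil, then the diluted emulsion was sprayed over the surface. After three weeks at 25° C. to 30° C. in a greenhouse, effects were graded on criteria from an earlier test.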

[6] = system: barnyard grass; assay: Test Example 4: herbicidal effect by soil treatment (Table 19, symbol H); assay type: in vivo, barnyard grass (Echinochloa crus-galli)
Method in brief: as §2

[7] = system: wild oat; assay: Test Example 4: herbicidal effect by soil treatment (Table 19, symbol I); assay type: in vivo, wild oat (Avena fatua)
Method in brief: as §2

[8] = system: redroot pigweed; assay: Test Example 4: herbicidal effect by soil treatment (Table 19, symbol N); assay type: in vivo, redroot pigweed (Amaranthus retroflexus)
Method in brief: as §2

[9] = system: chickweed; assay: Test Example 4: herbicidal effect by soil treatment (Table 19, symbol P); assay type: in vivo, common chickweed (Stellaria media)
Method in brief: as §2

[10] = system: green foxtail; assay: Test Example 5: herbicidal effect by foliage application, plastic box (Table 20, symbol G); assay type: in vivo, green foxtail (Setaria viridis); details: foliage application; for herbicidal effect on G: green foxtail: evaluated three weeks after application; for G: green foxtail, herbicidal effect: AAH 320 g/ha
Method in brief: (§3)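 Plants were sown into sterilized diluvial soil under about 1.5 cm cover and kept in a greenhouse at 25° C. to 30° C. Fourteen days on, foliage received an even spray of the diluted emulsion. Herbicidal or crop effect was judged three weeks afterwards.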

[11] = system: barnyard grass; assay: Test Example 5: herbicidal effect by foliage application, plastic box (Table 20, symbol H); assay type: in vivo, barnyard grass (Echinochloa crus-galli); details: foliage application; for herbicidal effect on H: barnyard grass: evaluated three weeks after application; for H: barnyard grass, herbicidal effect: AAH 320 g/ha
Method in brief: as §3

[12] = system: wild oat; assay: Test Example 5: herbicidal effect by foliage application, plastic box (Table 20, symbol I); assay type: in vivo, wild oat (Avena fatua); details: foliage application; for herbicidal effect on I: wild oat: evaluated three weeks after application; for I: wild oat, herbicidal effect: AAH 320 g/ha
Method in brief: as §3

[13] = system: blackgrass; assay: Test Example 5: herbicidal effect by foliage application, plastic box (Table 20, symbol J); assay type: in vivo, blackgrass (Alopecurus myosuroides); details: foliage application; for herbicidal effect on J: blackgrass: evaluated three weeks after application; for J: blackgrass, herbicidal effect: AAH 320 g/ha
Method in brief: as §3

[14] = system: velvetleaf; assay: Test Example 5: herbicidal effect by foliage application, plastic box (Table 20, symbol M); assay type: in vivo, velvetleaf (Abutilon theophrasti); details: foliage application; for herbicidal effect on M: velvetleaf: evaluated three weeks after application; for M: velvetleaf, herbicidal effect: AAH 320 g/ha
Method in brief: as §3

[15] = system: redroot pigweed; assay: Test Example 5: herbicidal effect by foliage application, plastic box (Table 20, symbol N); assay type: in vivo, redroot pigweed (Amaranthus retroflexus); details: foliage application; for herbicidal effect on N: redroot pigweed: evaluated three weeks after application; for N: redroot pigweed, herbicidal effect: AAH 320 g/ha
Method in brief: as §3

[16] = system: chickweed; assay: Test Example 5: herbicidal effect by foliage application, plastic box (Table 20, symbol P); assay type: in vivo, common chickweed (Stellaria media); details: foliage application; for herbicidal effect on P: chickweed: evaluated three weeks after application; for P: chickweed, herbicidal effect: AAH 320 g/ha
Method in brief: as §3

[17] = amount of applied herbicide 320 g/ha
[18] = 320 g/ha, three weeks after application

SMILES | Herbicidal effect on B: Japanese bulrush (grade 0-5) [1] | Herbicidal effect on C: oval-leafed pondweed (grade 0-5) [2] | herbicidal effect rating, C: oval-leafed pondweed [3] | herbicidal effect on E (rice flat sedge), rating 0-5 [4] | herbicidal effect on G: green foxtail ([10]; 320 g/ha) | herbicidal effect on H: barnyard grass ([11]; 320 g/ha) | herbicidal effect on I: wild oat ([12]; 320 g/ha) | herbicidal effect on J: blackgrass ([13]; 320 g/ha) | herbicidal effect on M: velvetleaf ([14]; 320 g/ha) | herbicidal effect on N: redroot pigweed ([15]; 320 g/ha) | herbicidal effect on P: chickweed ([16]; 320 g/ha) | G: green foxtail, herbicidal effect rating ([5]; AAH 320 g/ha) | H: barnyard grass, herbicidal effect rating ([6]; AAH 320 g/ha) | I: wild oat, herbicidal effect rating ([7]; AAH 320 g/ha) | N: redroot pigweed, herbicidal effect rating ([8]; AAH 320 g/ha) | P: chickweed, herbicidal effect rating ([9]; AAH 320 g/ha) | G: green foxtail, herbicidal effect ([10]; three weeks after application) | H: barnyard grass, herbicidal effect ([11]; three weeks after application) | I: wild oat, herbicidal effect ([12]; three weeks after application) | J: blackgrass, herbicidal effect ([13]; three weeks after application) | also measured
CCCC(=O)Oc1c(C)nn(C)c(=O)c1-c1c(-c2ccc(C(C)=O)cc2)sc2ccc(F)cc12 [2-078] | 4 (Herbicidal rate of 70% or more and less than 90%) | 4 (Herbicidal rate of 70% or more and less than 90%) | 4 (Herbicidal rate of 70% or more and less than 90%) | 5 (Herbicidal rate of 90% or more (almost completely withered)) | 3 (Herbicidal rate of 40% or more and less than 70%) | 2 (Herbicidal rate of 20% or more and less than 40%) | 2 (Herbicidal rate of 20% or more and less than 40%) | 4 (Herbicidal rate of 70% or more and less than 90%) | 5 (Herbicidal rate of 90% or more (almost completely withered)) | 5 (Herbicidal rate of 90% or more (almost completely withered)) | 5 (Herbicidal rate of 90% or more (almost completely withered)) | – | – | – | – | – | – | – | – | – | herbicidal effect rating, G: green foxtail ([5]; 320 g/ha): 0 (Herbicidal rate of 5% or less (almost no effect)); herbicidal effect rating, H: barnyard grass ([6]; 320 g/ha): 0 (Herbicidal rate of 5% or less (almost no effect)); herbicidal effect rating, I: wild oat ([7]; 320 g/ha): 0 (Herbicidal rate of 5% or less (almost no effect)); herbicidal effect rating, N: redroot pigweed ([8]; 320 g/ha): 4 (Herbicidal rate of 70% or more and less than 90%); herbicidal effect rating, P: chickweed ([9]; 320 g/ha): 3 (Herbicidal rate of 40% or more and less than 70%)
Cc1nn(C)c(=O)c(-c2c(-c3ccc([N+](=O)[O-])cc3)sc3ccccc23)c1O [1-151] | 3 (Herbicidal rate of 40% or more and less than 70%) | 3 (Herbicidal rate of 40% or more and less than 70%) | 0 (Herbicidal rate of 5% or less (almost no effect)) | 5 (Herbicidal rate of 90% or more (almost completely withered)) | – | – | – | – | – | – | – | 0 (Herbicidal rate of 5% or less (almost no effect)) | 0 (Herbicidal rate of 5% or less (almost no effect)) | 0 (Herbicidal rate of 5% or less (almost no effect)) | 3 (Herbicidal rate of 40% or more and less than 70%) | 0 (Herbicidal rate of 5% or less (almost no effect)) | 3 (Herbicidal rate of 40% or more and less than 70%) | 3 (Herbicidal rate of 40% or more and less than 70%) | 0 (Herbicidal rate of 5% or less (almost no effect)) | 0 (Herbicidal rate of 5% or less (almost no effect)) | M: velvetleaf, herbicidal effect ([14]; three weeks after application): 5 (Herbicidal rate of 90% or more (almost completely withered)); N: redroot pigweed, herbicidal effect ([15]; three weeks after application): 5 (Herbicidal rate of 90% or more (almost completely withered)); P: chickweed, herbicidal effect ([16]; three weeks after application): 5 (Herbicidal rate of 90% or more (almost completely withered))
Cc1nn(C)c(=O)c(-c2c(-c3ccc(C#N)cc3)sc3ccccc23)c1O [Compound No. 1-045, 5-hydroxy-2,6-dimethyl-4-(2-(4-cyanophenyl)benzo[b]thiophen-3-yl)pyridazin-3(2H)-one] | 4 (Herbicidal rate of 70% or more and less than 90%) | 4 (Herbicidal rate of 70% or more and less than 90%) | 4 (Herbicidal rate of 70% or more and less than 90%) | 5 (Herbicidal rate of 90% or more (almost completely withered)) | – | – | – | – | – | – | – | – | – | – | – | – | – | – | – | – | herbicidal effect rating, G: green foxtail [5, 17]: 4 (Herbicidal rate of 70% or more and less than 90%); herbicidal effect rating, H: barnyard grass [6, 17]: 5 (Herbicidal rate of 90% or more (almost completely withered)); herbicidal effect rating, I: wild oat [7, 17]: 0 (Herbicidal rate of 5% or less (almost no effect)); herbicidal effect rating, N: redroot pigweed [8, 17]: 3 (Herbicidal rate of 40% or more and less than 70%); herbicidal effect rating, P: chickweed [9, 17]: 4 (Herbicidal rate of 70% or more and less than 90%); herbicidal effect grade, G: green foxtail [10, 18]: 3 (Herbicidal rate of 40% or more and less than 70%); herbicidal effect grade, H: barnyard grass [11, 18]: 4 (Herbicidal rate of 70% or more and less than 90%); herbicidal effect grade, I: wild oat [12, 18]: 3 (Herbicidal rate of 40% or more and less than 70%); herbicidal effect grade, J: blackgrass [13, 18]: 0 (Herbicidal rate of 5% or less (almost no effect)); herbicidal effect grade, M: velvetleaf [14, 18]: 5 (Herbicidal rate of 90% or more (almost completely withered)); herbicidal effect grade, N: redroot pigweed [15, 18]: 5 (Herbicidal rate of 90% or more (almost completely withered)); herbicidal effect grade, P: chickweed [16, 18]: 5 (Herbicidal rate of 90% or more (almost completely withered))
CCCC(=O)Oc1c(C)nn(C)c(=O)c1-c1c(-c2ccc([N+](=O)[O-])cc2)sc2ccccc12 [1-152] | 3 (Herbicidal rate of 40% or more and less than 70%) | 5 (Herbicidal rate of 90% or more (almost completely withered)) | 0 (Herbicidal rate of 5% or less (almost no effect)) | 3 (Herbicidal rate of 40% or more and less than 70%) | – | – | – | – | – | – | – | 2 (Herbicidal rate of 20% or more and less than 40%) | 3 (Herbicidal rate of 40% or more and less than 70%) | 0 (Herbicidal rate of 5% or less (almost no effect)) | 3 (Herbicidal rate of 40% or more and less than 70%) | 3 (Herbicidal rate of 40% or more and less than 70%) | 5 (Herbicidal rate of 90% or more (almost completely withered)) | 4 (Herbicidal rate of 70% or more and less than 90%) | 0 (Herbicidal rate of 5% or less (almost no effect)) | 0 (Herbicidal rate of 5% or less (almost no effect)) | M: velvetleaf, herbicidal effect ([14]; three weeks after application): 5 (Herbicidal rate of 90% or more (almost completely withered)); N: redroot pigweed, herbicidal effect ([15]; three weeks after application): 5 (Herbicidal rate of 90% or more (almost completely withered)); P: chickweed, herbicidal effect ([16]; three weeks after application): 5 (Herbicidal rate of 90% or more (almost completely withered))
COc1ccccc1-c1sc2ccc(Cl)cc2c1-c1c(O)c(C)nn(C)c1=O [2-101] | 3 (Herbicidal rate of 40% or more and less than 70%) | 3 (Herbicidal rate of 40% or more and less than 70%) | 5 (Herbicidal rate of 90% or more (almost completely withered)) | 5 (Herbicidal rate of 90% or more (almost completely withered)) | 3 (Herbicidal rate of 40% or more and less than 70%) | 3 (Herbicidal rate of 40% or more and less than 70%) | 3 (Herbicidal rate of 40% or more and less than 70%) | 5 (Herbicidal rate of 90% or more (almost completely withered)) | 5 (Herbicidal rate of 90% or more (almost completely withered)) | 5 (Herbicidal rate of 90% or more (almost completely withered)) | 5 (Herbicidal rate of 90% or more (almost completely withered)) | – | – | – | – | – | – | – | – | – | G: green foxtail, herbicidal effect rating [5, 17]: 2 (Herbicidal rate of 20% or more and less than 40%); H: barnyard grass, herbicidal effect rating [6, 17]: 3 (Herbicidal rate of 40% or more and less than 70%); I: wild oat, herbicidal effect rating [7, 17]: 0 (Herbicidal rate of 5% or less (almost no effect)); N: redroot pigweed, herbicidal effect rating [8, 17]: 5 (Herbicidal rate of 90% or more (almost completely withered)); P: chickweed, herbicidal effect rating [9, 17]: 5 (Herbicidal rate of 90% or more (almost completely withered))
